Experimental data taken from BindingDB's records for doi:10.1021/acs.jmedchem.8b01644 (University of Montpellier, 2019).
Positions of bridges follow the written chain, without caps; N, C: chain ends. Non-standard residues stand in square brackets, D forms with d. Residues, ends and D or L forms follow the SMILES beside them. Nle = CCCC[C@H](N)C(=O)O

Columns and labels:
[1] = Antagonist activity at SNAP-tagged human GHSR expressed in HEK293T cells assessed as reduction in ghrelin-induced inositol phosphate production at 1 uM by measuring ghrelin EC50 after 30 mins by HTRF assay (Rvb = 0.36 +/- 0.01 nM)
[2] = Antagonist activity at human SNAP-tagged GHSR expressed in HEK293T cells assessed as reduction in ghrelin-induced calcium production at 1 uM by measuring ghrelin EC50 after 15 mins by Fluo 4-AM dye-based fluorescence assay (Rvb = 0.41 +/- […])
[3] = Antagonist activity at human SNAP-tagged GHSR expressed in HEK293T cells assessed as reduction in ghrelin-induced calcium production at 1 uM by measuring ghrelin EC50 after 15 mins by Fluo 4-AM dye-based fluorescence assay (Rvb = 0.34 +/- 0.12 nM)
[4] = Antagonist activity at SNAP-tagged human GHSR expressed in HEK293T cells assessed as reduction in ghrelin-induced inositol phosphate production at 1 uM by measuring ghrelin EC50 after 30 mins by HTRF assay (Rvb = 0.40 +/- 0.05 nM)

| SMILES | EC50 [1] [nM] | EC50 [2] [nM] | EC50 [3] [nM] | EC50 [4] [nM] |
| --- | --- | --- | --- | --- |
| CC[C@H](C)[C@@H]1NC(=O)[C@@H]2CSSC[C@@H](C(=O)N[C@@H](CO)C(=O)N[C@@H](CC(C)C)C(=O)N[C@@H](CO)C(=O)N[C@H](C(=O)N[C@@H](C)C(=O)N[C@@H](CCC(N)=O)C(=O)N[C@@H](CCC(=O)O)C(=O)O)C(C)C)NC(=O)[C@H](CCCNC(=N)N)NC(=O)[C@H](CCCNC(=N)N)NC(=O)[C@H](CCCCN)NC(=O)[C@H](CCCNC(=N)N)NC(=O)[C@H](CSSC[C@H](NC(=O)[C@H](CO)NC(=O)[C@H](C)NC(=O)CNC(=O)[C@@H](NC(=O)[C@@H]3CCCN3C(=O)[C@H](CCCNC(=N)N)NC(=O)[C@H](CC(C)C)NC(=O)[C@H](CO)NC(=O)[C@@H](NC(=O)CNC(=O)[C@H](CCCNC(=N)N)NC(=O)[C@H](Cc3c[nH]c4ccccc34)NC(=O)[C@H](Cc3ccccc3)NC(=O)[C@@H]3CCCN3C(=O)[C@@H](NC(=O)[C@@H](N)CCSC)[C@@H](C)O)C(C)C)[C@@H](C)CC)C(=O)N[C@@H](CCCNC(=N)N)C(=O)N[C@@H](CC(=O)O)C(=O)N[C@@H](CC(=O)O)C(=O)N[C@@H](CO)C(=O)N[C@@H](CCC(=O)O)C(=O)N2)NC(=O)[C@H](CC(C)C)NC(=O)[C@H](CCCNC(=N)N)NC(=O)[C@H]([C@@H](C)O)NC1=O (H-MTPFWRGVSLRPIGASCRDDSECITRLCRKRRCSLSVAQE-OH; disulfide 17-28, 23-33) | 17 | 28 | – | – |
| CCCC[C@H](N)C(=O)N[C@H](C(=O)N1CCC[C@H]1C(=O)N[C@@H](Cc1ccccc1)C(=O)N[C@@H](Cc1c[nH]c2ccccc12)C(=O)N[C@@H](CCCNC(=N)N)C(=O)NCC(=O)N[C@H](C(=O)N[C@@H](CO)C(=O)N[C@@H](CC(C)C)C(=O)N[C@@H](CCCNC(=N)N)C(=O)N1CCC[C@H]1C(=O)N[C@H](C(=O)NCC(=O)O)[C@@H](C)CC)C(C)C)[C@@H](C)O (H-[Nle]TPFWRGVSLRPIG-OH) | – | – | 18 | 2.5 |
